Where two headings read alike, the source gives them in different places.
How the values were obtained:
[1] = test system: boll weevils; details: 250 ppm; cited from earlier work
[2] = test system: oriental roaches; details: 250 ppm; cited from earlier work
[3] = test system: Southern armyworm larvae; details: 250 ppm; cited from earlier work
[4] = test system: house flies; details: cited from earlier work
[5] = test system: milkweed bugs; details: 250 ppm; cited from earlier work
[6] = test system: Boll Weevil; test: Boll Weevil Test; type: in vivo, Anthonomus grandis (Coleoptera); details: 48 h
Source text: The procedure is identical to that employed for the Mexican bean beetle and the Southern armyworm, except that 10 adult boll weevils are placed on cotton leaves that have been dipped into formulations of the test compounds. The same rating scale is used.

[7] = test system: Alfalfa Weevil Larvae; test: Field trial, contact poison test; type: in vivo
Source text: (§1) Infested plants are placed in 6 oz. prescription bottles filled with water to keep them from wilting. Cellucotton is wrapped around the plant stem and squeezed into the bottle neck to prevent the insects from drowning.
(§2) A DeVilbiss Special Atomizer (5004) is used at 10 psi to spray the test plant with different concentrations of compounds. The atomizer is held at arm's length to prevent blowing the insects off the host plant. After treating, the bottles are placed on a table covered with brown wrapping paper to catch the dead insects as they drop from the plant. The plants are spaced so the leaves or plants are not touching one another.
(§3) The results are read at 24, 48, and 72 hours when applicable. The rating scale is 0 to 9 where 0 = 0-10 percent and 9 = 91-100 percent mortality.
(§4) Using the above methods, field trials were carried out against species of 5 orders of insects. The results, which are summarized in the following tables, give the average mortality for the particular insect with a given benzimidazole for each concentration employed. […] These tables contain all results obtained during the summer trials.

[8] = test system: Southern Corn Rootworm Adults; test: Field trial, contact poison test; type: in vivo
Source text: as §1, §2, §3, §4

[9] = test system: Potato Flea Beetle Adults; test: Field trial, contact poison test; type: in vivo
Source text: as §1, §2, §3, §4

[10] = test system: Alfalfa Weevil Larvae; test: Field trial, topical application; type: in vivo
Protocol: as §3
(§5) In a variation of the above test, 1 microliter of a test solution containing a predetermined number of micrograms of benzimidazole was applied directly to larvae or adult insects.
as §4

[11] = test system: Mexican Bean Beetle; test: Field trial (first summer), topical; type: in vivo, Epilachna varivestis; details: .25 μg/μl
Protocol: as §5
(§6) During the previous summer similar field trials were conducted employing the same tests as heretofore but with some additional species of insects not included in the later tests. The results listed below are for tests in which an insect mortality was established by a given application route and at a given concentration in a particular test. The same 0 - 9 scoring system is used as is the designation of compounds by alphabetical symbols.

[12] = test system: Alfalfa Weevil Larvae; test: Field trial, stomach poison test; type: in vivo
Protocol: (§7) Leaves from the infested plant are treated with different concentrations of the test compounds, either by spraying with a DeVilbiss Special Atomizer (5004) at 10 psi or by dipping the leaves in solutions containing the compound. The leaves are then allowed to air dry.
(§8) After the leaves have dryed, they are placed in plastic petri dishes (100 × 25 mm), then the insects are counted out into each dish, five or ten insects per dish depending on the number of insects available. There are one or two replicates and usually two or three rates with each compound. Mortality results are taken at 24, 48 and 72 hours. The rating scale is 0 to 9.
as §4

[13] = test system: Meadow Spittlebug; test: Field trial, stomach poison test; type: in vivo
Protocol: as §7, §8, §4

[14] = test system: Potato Flea Beetle Adults; test: Field trial, stomach poison test; type: in vivo
Protocol: as §7, §8, §4

[15] = test system: Confused Flour Beetle; test: Field trial (first summer), topical; type: in vivo; details: .078125 μg/μl
Protocol: as §5, §6

[16] = test system: Boll Weevil; test: Field trial (first summer), topical; type: in vivo, Anthonomus grandis; details: .078125 μg/μl
Protocol: as §5, §6

[17] = test system: Milkweed Bug; test: Milkweed Bug Test; type: in vivo, Oncopeltis fasciatus (Hemiptera); details: 100 ppm, 48 h
Protocol: Ten adult milkweed bugs are chilled and placed in a test cage. The cages containing the bugs are sprayed with 5 ml. of a test formulation containing a pre-determined amount of the insecticide, using a DeVilbiss atomizer at 10 psi held 33 inches from the top of the cage. After the cage has been allowed to dry, the bugs are fed and watered for 48 hours. A formulation containing 500 ppm of malathion is used as a reference standard and two unsprayed cages are kept as controls. Mortality counts are made 48 hours after spraying. Moribund adults are considered dead. The same rating scale is employed as before.

[18] = test system: Squash Bug Adults; test: Field trial, contact poison test; type: in vivo; design: key: 0-9 rating: 0 = 0-10% mortality, 9 = 91-100% mortality
Source text: as §1, §2, §3, §4

[19] = test system: Mosquito Larvae; test: Mosquito larvae test (dip test); type: in vivo, Aedes aegypti; details: 48 h
Protocol: Aedes aegypti larvae 5 days old are allowed to feed on fresh food for at least 3 hours previous to being placed on test. Larvae are then removed from the rearing pans by pouring on a 20 mesh screen, washing with deionized water, and pooling in a 6-inch white enameled sauce pan.
Twenty larvae are placed in a 1 oz. paper cup containing 25 ml. of deionized water.
Test chemicals are dissolved in a suitable solvent and pipetted under the surface of 225 ml. of deionized water in one pint wide-mouthed Mason jar test containers and stirred. A cup containing 20 larvae in 25 ml. of water is then added. […]
Results are determined 48 hours later by counting the dead and moribund larvae. […] Moribund larvae are those that are capable of limited, or poorly coordinated, locomotion in a sluggish manner.
Live larvae respond normally and actively.

[20] = test system: Tarnished Plant Bug Adults; test: Field trial, stomach poison test; type: in vivo; design: key: mortality rating on a 0 to 9 scale
Protocol: as §7, §8, §4

[21] = test system: Striped Cucumber Beetle Adults; test: Field trial, stomach poison test; type: in vivo; design: key: mortality rating on a 0 to 9 scale
Protocol: as §7, §8, §4

[22] = test system: Southern Corn Rootworm Adults; test: Field trial, stomach poison test; type: in vivo; design: key: mortality rating on a 0 to 9 scale
Protocol: as §7, §8, §4

[23] = test system: Unidentified Green Leafhopper; test: Field trial, stomach poison test; type: in vivo; design: key: mortality rating on a 0 to 9 scale
Protocol: as §7, §8, §4

[24] = test system: Two-spotted Spider Mite; test: Two-spotted Spider Mite test; type: in vivo, Tetranychus urticae (Acarina); details: 48 h
Protocol: The procedure in this test is the same as that in the previous aphid test, except that about 100 two-spotted spider mites from a stock colony raised on squash plants are transferred to a cut squash cotyledon. The mortality is estimated 48 hours after spraying. The same rating scale is used.

[25] = test system: Yellow Mealworm Larvae; test: Field trial, topical application; type: in vivo; design: key: 0 = 0-10% mortality, 9 = 91-100% mortality (0-9 scale)
Protocol: as §3, §5, §4

[26] = test system: Buffalo Tree Hopper; test: Field trial (first summer), contact; type: in vivo; details: 125 ppm
Source text: as §1, §2, §3, §6

[27] = test system: Meadow Grasshopper; test: Field trial (first summer), contact; type: in vivo; details: 125 ppm
Source text: as §1, §2, §3, §6

[28] = test system: Differential Grasshopper; test: Field trial (first summer), contact; type: in vivo; details: 125 ppm
Source text: as §1, §2, §3, §6

[29] = test system: Picnic Beetle; test: Field trial (first summer), topical; type: in vivo; details: .078125 μg/μl
Protocol: as §5, §6

[30] = test system: Picnic Beetle; test: Field trial (first summer), contact; type: in vivo; details: 250 ppm
Source text: as §1, §2, §3, §6

[31] = test system: Milkweed Beetle; test: Field trial (first summer), contact; type: in vivo; details: 125 ppm
Source text: as §1, §2, §3, §6

[32] = test system: Asparagus Beetles Adults; test: Field trial, contact poison test; type: in vivo
Source text: as §1, §2, §3, §4

[33] = test system: Asparagus Beetles Adults; test: Field trial, stomach poison test; type: in vivo
Protocol: as §7, §8, §4

[34] = test system: Picnic Beetle; test: Field trial (first summer), stomach; type: in vivo; details: 250 ppm
Protocol: as §7, §8, §6

SMILES: FC(F)(F)c1nc2ccc(Cl)c(Cl)c2[nH]1 [2-trifluoromethyl-4,5-dichlorobenzimidazole]
- insecticidal activity [1]: without action
- insecticidal activity [2]: without action
- insecticidal activity [3]: complete kill
- insecticidal activity ([4]; 1000 ppm): excellent only at 1000 ppm
- insecticidal activity [5]: without action

SMILES: FC(F)(F)c1nc2cc(Cl)c(Cl)cc2[nH]1 [2-trifluoromethyl-5,6-dichlorobenzimidazole]
- insecticidal activity [1]: no activity
- insecticidal activity [2]: no activity
- insecticidal activity [3]: same excellent activity
- insecticidal activity ([4]; 250 ppm): no activity
- insecticidal activity [5]: no activity

SMILES: O=[N+]([O-])c1cc(C(F)(F)F)cc2c1nc(C(F)(F)F)n2S(=O)(=O)c1ccccc1 [F, 2,6-bis(trifluoromethyl)-4-nitro-1-phenylsulfonylbenzimidazole]
- mortality rating ([6]; 25 ppm): 7.5
- mortality rating ([6]; 50 ppm): 6.5
- mortality rating ([6]; 250 ppm): 8.5
- average mortality rating ([7]; 500 ppm): 8
- average mortality rating ([7]; 750 ppm): 8
- average mortality rating ([7]; 1000 ppm): 8
- average mortality rating ([8]; 25 ppm): 2
- average mortality rating ([8]; 50 ppm): 5
- average mortality rating ([8]; 100 ppm): 9 (91-100 percent mortality)
- average mortality rating ([9]; 10 ppm): 8
- average mortality rating ([9]; 25 ppm): 8
- average mortality rating ([9]; 50 ppm): 9 (91-100 percent mortality)
- average mortality rating ([10]; 0.03 μg/μl): 1
- average mortality rating ([10]; 0.07 μg/μl): 1
- average mortality rating ([10]; 0.1 μg/μl): 3
- insect mortality rating [11]: 9 (91-100 percent mortality)
- average mortality rating ([12]; 125 ppm): 1
- average mortality rating ([12]; 250 ppm): 2
- average mortality rating ([12]; 500 ppm): 7
- average mortality rating ([13]; 10 ppm): 0 (0-10 percent)
- average mortality rating ([13]; 25 ppm): 1
- average mortality rating ([13]; 50 ppm): 7
- average mortality rating ([14]; 10 ppm): 9 (91-100 percent mortality)
- average mortality rating ([14]; 25 ppm): 9 (91-100 percent mortality)
- average mortality rating ([14]; 50 ppm): 9 (91-100 percent mortality)
- insect mortality rating [15]: 9 (91-100 percent mortality)
- insect mortality rating [16]: 9 (91-100 percent mortality)
- mortality rating [17]: 7.5
- average mortality rating ([18]; 125 ppm): 0 (0-10 percent)
- average mortality rating ([18]; 250 ppm): 4
- average mortality rating ([18]; 500 ppm): 7
- average mortality rating ([18]; 750 ppm): 9 (91-100 percent mortality)
- average mortality rating ([19]; 0.010 ppm): 8 (85-90%)
- average mortality rating ([19]; 0.025 ppm): 5 (55-60%)
- average mortality rating ([19]; 0.05 ppm): 8 (85-90%)
- average mortality rating ([19]; 0.1 ppm): 9 (95-100%)
- average mortality rating ([20]; 10 ppm): 4
- average mortality rating ([20]; 25 ppm): 4
- average mortality rating ([20]; 50 ppm): 2
- average mortality rating ([21]; 10 ppm): 0 (0-10 percent)
- average mortality rating ([21]; 25 ppm): 3
- average mortality rating ([21]; 50 ppm): 3
- average mortality rating ([22]; 25 ppm): 3
- average mortality rating ([22]; 50 ppm): 4
- average mortality rating ([22]; 100 ppm): 5
- average mortality rating ([23]; 10 ppm): 1
- average mortality rating ([23]; 25 ppm): 1
- average mortality rating ([23]; 50 ppm): 7
- mortality rating ([24]; 1 ppm): 6.3
- mortality rating ([24]; 5 ppm): 7.5
- mortality rating ([24]; 10 ppm): 6.8
- average mortality rating ([25]; 0.03 μg/μl): 2
- average mortality rating ([25]; 0.07 μg/μl): 3
- average mortality rating ([25]; 0.15 μg/μl): 5

SMILES: C=CCOC(=O)n1c(C(F)(F)F)nc2c([N+](=O)[O-])cc(C(F)(F)F)cc21 [K, allyl 2,6-bis(trifluoromethyl)-4-nitro-1-benzimidazolecarboxylate]
- insect mortality rating [26]: 9 (91-100 percent mortality)
- insect mortality rating [27]: 9 (91-100 percent mortality)
- insect mortality rating [28]: 9 (91-100 percent mortality)
- insect mortality rating [11]: 9 (91-100 percent mortality)
- insect mortality rating [15]: 9 (91-100 percent mortality)
- insect mortality rating [29]: 9 (91-100 percent mortality)
- insect mortality rating [16]: 9 (91-100 percent mortality)
- average mortality rating ([25]; 0.03 μg/μl): 1
- average mortality rating ([25]; 0.07 μg/μl): 3
- average mortality rating ([25]; 0.15 μg/μl): 6

SMILES: CCN(CC)C(=O)n1c(SC(F)(F)F)nc2c([N+](=O)[O-])cc(SC(F)(F)F)cc21 [S, n,n-diethyl-4-nitro-2,6-bis(trifluoromethyl)thio-1-benzimidazolecarboxamide]
- insect mortality rating [30]: 9 (91-100 percent mortality)
- insect mortality rating [31]: 9 (91-100 percent mortality)
- average mortality rating ([32]; 10 ppm): 0 (0-10 percent)
- average mortality rating ([32]; 25 ppm): 8
- average mortality rating ([32]; 50 ppm): 5
- average mortality rating ([9]; 10 ppm): 5
- average mortality rating ([9]; 25 ppm): 8
- average mortality rating ([9]; 50 ppm): 9 (91-100 percent mortality)
- average mortality rating ([33]; 5 ppm): 7
- average mortality rating ([33]; 10 ppm): 7
- average mortality rating ([33]; 25 ppm): 9 (91-100 percent mortality)
- average mortality rating ([14]; 10 ppm): 3
- average mortality rating ([14]; 25 ppm): 7
- average mortality rating ([14]; 50 ppm): 9 (91-100 percent mortality)
- insect mortality rating [29]: 9 (91-100 percent mortality)
- insect mortality rating [34]: 9 (91-100 percent mortality)
- average mortality rating ([19]; 0.010 ppm): 4 (45-50%)
- average mortality rating ([19]; 0.025 ppm): 5 (55-60%)
- average mortality rating ([19]; 0.05 ppm): 5 (55-60%)
- average mortality rating ([19]; 0.1 ppm): 9 (95-100%)
- average mortality rating ([20]; 25 ppm): 5
- average mortality rating ([23]; 10 ppm): 3
- average mortality rating ([23]; 25 ppm): 0 (0-10 percent)
- average mortality rating ([23]; 50 ppm): 0 (0-10 percent)
- average mortality rating ([25]; 0.03 μg/μl): 2
- average mortality rating ([25]; 0.07 μg/μl): 4
- average mortality rating ([25]; 0.15 μg/μl): 4

From patent publication US4122184A, “Benzimidazole insecticides” (priority 1977, dated 1978)
